From patent EP1430933A2, “Cosmetic and pharmaceutical compositions comprising steroid sulfatase inhibitors and their use for the reduction of hair loss” (Henkel Kommanditgesellschaft auf Aktien, priority 2002, dated 2004) come the findings set out here.

The test concerns the target T1, Arylsulfatase (EC 3.1.6.1) (Klebsiella aerogenes, UniProt P20713).
T1 construct: purchased Sigma S-1629
T1 sequence (P20713 21-464): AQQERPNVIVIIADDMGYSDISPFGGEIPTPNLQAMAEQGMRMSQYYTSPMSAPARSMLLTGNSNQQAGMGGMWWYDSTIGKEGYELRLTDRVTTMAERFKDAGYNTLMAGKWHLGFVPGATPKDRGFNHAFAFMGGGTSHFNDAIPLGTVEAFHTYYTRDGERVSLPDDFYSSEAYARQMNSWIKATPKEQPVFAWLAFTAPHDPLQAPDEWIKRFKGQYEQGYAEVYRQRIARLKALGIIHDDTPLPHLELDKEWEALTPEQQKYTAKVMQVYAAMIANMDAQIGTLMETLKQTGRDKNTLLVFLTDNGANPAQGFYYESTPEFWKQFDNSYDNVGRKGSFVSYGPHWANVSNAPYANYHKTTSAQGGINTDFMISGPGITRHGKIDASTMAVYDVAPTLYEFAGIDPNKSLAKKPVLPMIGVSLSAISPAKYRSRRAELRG
Nature of the test: Arylsulfatase enzyme test (Sigma sulfatase enzyme assay S-1629; p-nitrophenol formation from pNPS, 420 nm). It counts as biochemical. Particulars: pH 7,1, 37°C, 8 mM pNPS. The source says: Überprüfung der inhibitorischen Wirkung der Steroidsulfatase-Inhibitoren (in vitro)
Da die Sulfatase des Haarfollikels nicht zur Verfügung stand, diente eine handelsübliche Arylsulfatase (EC 3.1.6.1) aus Aerobacter aerogenes als Modellenzym, um die Hemmwirkung der erfindungsgemäß verwendeten Inhibitoren zu testen. Die Tests wurden mit dem Sulfatase-Enzymassay Product No. S-1629 von Sigma gemäß den Angaben im Sigma Quality Control Test Procedure-Datenblatt durchgeführt. Als Referenz-Inhibitoren dienten Ascorbinsäure und ATP.
Zur Auswertung wurde die Arylsulfatase-katalysierte Bildung von p-Nitrophenol aus dem Substrat p-Nitrophenylsulfat (pNPS) spektrophotometrisch (λ = 420 nm) verfolgt. Die Reaktionslösungen von 1000 µl, die auf eine Reaktionstemperatur von 37°C temperiert wurden, enthielten 187 mM Tris/HCl (pH 7,1), 8 mM pNPS und eine Startkonzentration von 0,05 U/ml Arylsulfatase. Die Einheit U der Enzymaktivität wurde so definiert, dass 1 U Sulfatase 1,0 µmol pNPS pro Minute bei pH 7,1 und 37°C hydrolysiert. Die Testdurchführung ist auch offenbart bei H.R. Fowler und D. H. Rammler, Biochemistry 3, 230, 1964. Die Reaktion wurde durch Zugabe des Enzyms gestartet und der Anstieg der Absorption bei λ = 420 nm über 5 Minuten verfolgt. Der lineare Anstieg der Absorption (A) pro Zeiteinheit (t) ist hierbei ein Maß für die Aktivität des Enzyms (ΔA/Δt). Die Aktivität des Enzyms in Abwesenheit eines Inhibitors, (ΔA1/Δt1 ), wurde als Referenz gleich 100% gesetzt. Unter analogen Bedingungen wurden die Aktivitäten in Gegenwart eines Inhibitors (ΔA2/Δt2) bestimmt. Die Hemmwirkung des Inhibitors bzw. die Minderung der Enzymaktivität wurde dann berechnet gemäß der Formel 100% - (ΔA2/Δt2 )/( ΔA1/Δt1 )%.

Turning to “Aluminiumchlorohydrat [Aluminiumchlorohydrat (ACH)]”, the Hemmwirkung entry was “Keine Hemmung meßbar” (ACH-Lösung Locron® L 0,01 % (v/v)), 6% (ACH-Lösung Locron® L 0,1 % (v/v)), 27% (ACH-Lösung Locron® L 0,5 % (v/v)) and 52% (ACH-Lösung Locron® L 1 % (v/v)).
